For test [1], the target named is B-Raf (Homo sapiens, UniProt P15056). Kind of test: B-Raf Accelerated MEK ATPase assay (BRAMA), Method A or B. The format is biochemical. In a few lines: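 Activated Raf plus non-phosphorylated MEK drives MEK-mediated ATP hydrolysis; ADP formation coupled via pyruvate kinase/lactate dehydrogenase to NADH oxidation. Method A read kinetically; Method B used 150 nM final MEK and a single end-point read.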

Test [2] has as its system SK-MEL-28 tumor cells. Kind of test: Cell growth inhibition assay (CellTiter-Glo), SK-MEL-28. The format is cell-based, Human. As to conditions: 3 days incubation. In a few lines:
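Cells plated at 500 cells/well in their growth media, dosed next day with nine-step 1:3 compound dilutions (final DMSO 0.2%), then incubated 3 days at 37° C, 5% CO2. Total ATP read by CellTiter-Glo luminescence as a surrogate for cell number; IC50 interpolated from 4-parameter fit versus DMSO controls.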
(In ATP-based viability assays light output follows the ATP content of the culture.)

[3] abbreviates: Method B: final MEK 150 nM, single end point read.

Usually IC50 stands for the concentration at which inhibition is half-maximal.

Molecules are shown by their SMILES. Structures can show the parent of a compound that is named as a salt.

Sequence of B-Raf (P15056 whole entry): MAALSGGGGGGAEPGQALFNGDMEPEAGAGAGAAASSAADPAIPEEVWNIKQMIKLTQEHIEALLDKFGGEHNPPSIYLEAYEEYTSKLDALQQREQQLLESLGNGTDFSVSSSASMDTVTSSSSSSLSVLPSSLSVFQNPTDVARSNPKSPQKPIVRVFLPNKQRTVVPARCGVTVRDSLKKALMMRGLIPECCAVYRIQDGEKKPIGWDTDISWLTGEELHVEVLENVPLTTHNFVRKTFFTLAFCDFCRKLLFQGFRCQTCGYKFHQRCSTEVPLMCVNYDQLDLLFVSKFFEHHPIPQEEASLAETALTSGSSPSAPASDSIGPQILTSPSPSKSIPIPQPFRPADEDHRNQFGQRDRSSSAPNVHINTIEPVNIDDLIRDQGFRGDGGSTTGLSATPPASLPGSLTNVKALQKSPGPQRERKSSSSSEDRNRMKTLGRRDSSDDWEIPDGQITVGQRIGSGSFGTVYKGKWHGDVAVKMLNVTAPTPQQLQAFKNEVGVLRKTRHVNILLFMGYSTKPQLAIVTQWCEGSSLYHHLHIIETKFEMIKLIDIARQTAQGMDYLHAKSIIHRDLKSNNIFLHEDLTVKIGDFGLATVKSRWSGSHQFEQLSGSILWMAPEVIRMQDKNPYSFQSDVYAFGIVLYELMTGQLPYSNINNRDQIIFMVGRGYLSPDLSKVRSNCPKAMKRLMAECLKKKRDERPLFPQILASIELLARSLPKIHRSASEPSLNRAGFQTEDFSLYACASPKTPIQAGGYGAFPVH

`CC(C)(C)c1nc(-c2ccc(F)c(NS(=O)(=O)c3c(F)cccc3F)c2)c(-c2ccnc(Nc3ccc(N4CCOCC4)nc3)n2)s1` [Example 28, N-{5-[2-(1,1-Dimethylethyl)-5-(2-{[[6-(4-morpholinyl)-3-pyridinyl]amino}-4-pyrimidinyl)-1,3-thiazol-4-yl]-2-fluorophenyl]-2,6-difluorobenzenesulfonamide hydrochloride]: the half-maximal inhibitory concentration (IC50) was < 100 nM in test [1] (setting [3]) and < 100 nM in test [2] (Homo sapiens, SK-MEL-28, 72 h).
Take `CC(C)c1nc(-c2cccc(NS(=O)(=O)c3c(F)cccc3F)c2F)c(-c2ccnc(Nc3ccc(N4CCN(CCF)CC4)c(F)c3)n2)s1` [Example 29, 2,6-Difluoro-N-{2-fluoro-3-[5-[2-({3-fluoro-4-[4-(2-fluoroethyl)-1-piperazinyl]phenyl}amino)-4-pyrimidinyl]-2-(1-methylethyl)-1,3-thiazol-4-yl]phenyl}benzenesulfonamide]: the concentration for half-maximal inhibition (IC50) is < 100 nM in test [1] (setting [3]) and < 100 nM in test [2] (Homo sapiens, SK-MEL-28, 72 h).
On to `CC(C)c1nc(-c2cccc(NS(=O)(=O)c3c(F)cccc3F)c2F)c(-c2ccnc(Nc3cnc(N4CCOCC4)c(F)c3)n2)s1` [Example 30, 2,6-Difluoro-N-{2-fluoro-3-[5-(2-{[5-fluoro-6-(4-morpholinyl)-3-pyridinyl]amino}-4-pyrimidinyl)-2-(1-methylethyl)-1,3-thiazol-4-yl]phenyl}benzenesulfonamide], for which the IC50 in test [1] (setting [3]) was < 100 nM; in test [2] (Homo sapiens, SK-MEL-28, 72 h) it was < 100 nM.
`CC(C)c1nc(-c2cc(F)c(F)c(NS(=O)(=O)c3cccc(F)c3)c2)c(-c2ccnc(Nc3cnc(N4CCOCC4)c(F)c3)n2)s1` [Example 31, N-{2,3-Difluoro-5-[5-(2-{[5-fluoro-6-(4-morpholinyl)-3-pyridinyl]amino}-4-pyrimidinyl)-2-(1-methylethyl)-1,3-thiazol-4-yl]phenyl}-3-fluorobenzenesulfonamide]: the IC50 in test [1] (setting [3]) is < 100 nM; in test [2] (Homo sapiens, SK-MEL-28, 72 h) it was 100 to 1000 nM.
For `CC(C)c1nc(-c2ccnc(NS(=O)(=O)c3c(F)cccc3F)c2)c(-c2ccnc(Nc3ccc(N4CCOCC4)nc3)n2)s1` [Example 32, 2,6-Difluoro-N-{4-[2-(1-methylethyl)-5-(2-{[6-(4-morpholinyl}-3-pyridinyl]amino}-4-pyrimidinyl)-1,3-thiazol-4-yl]-2-pyridinyl}benzenesulfonamide], in that order: < 100 nM and < 100 nM.
For `CC(C)c1nc(-c2ccnc(NS(=O)(=O)c3c(F)cccc3F)c2)c(-c2ccnc(Nc3cnc(N4CCOCC4)c(F)c3)n2)s1` [Example 33], in that order: < 100 nM and < 100 nM.
On the same counts, the results for `CCc1nc(-c2cccc(CNS(=O)(=O)c3ccccc3)c2)c(-c2ccnc(Nc3ccc(N4CCOCC4)c(F)c3)n2)s1` [Example 34] are < 100 nM and 100 to 1000 nM.
Take `CC(=O)N1CCN(c2ccc(Nc3nccc(-c4sc(C(C)C)nc4-c4cccc(NS(=O)(=O)c5cn(C)cn5)c4)n3)cn2)CC1` [Example 36]: the concentration for half-maximal inhibition (IC50) in test [1] (setting [3]) is < 100 nM; in test [2] (Homo sapiens, SK-MEL-28, 72 h), 100 to 1000 nM.
For `CC(C)c1nc(-c2cccc(NS(=O)(=O)C3CCCCC3)c2)c(-c2ccnc(Nc3ccc(N4CCOCC4)c(F)c3)n2)s1` [Example 38], the concentration for half-maximal inhibition (IC50) in test [1] (setting [3]) lay within 100 to 1000 nM; in test [2] (Homo sapiens, SK-MEL-28, 72 h), 100 to 1000 nM.
Consider `CC(=O)N1CCN(c2ccc(Nc3nccc(-c4sc(C(C)C)nc4-c4cccc(NS(=O)(=O)C5CCCCC5)c4)n3)cn2)CC1` [Example 39], for which the IC50 in test [1] (setting [3]) is < 100 nM; in test [2] (Homo sapiens, SK-MEL-28, 72 h) it was 100 to 1000 nM.
`Cc1nc(Cl)sc1S(=O)(=O)Nc1cccc(-c2nc(C(C)C)sc2-c2ccnc(Nc3ccc(N4CCOCC4)nc3)n2)c1` [Example 42]: the IC50 in test [1] (setting [3]) is < 100 nM; in test [2] (Homo sapiens, SK-MEL-28, 72 h) it was < 100 nM.
`CC(C)c1nc(-c2cccc(NS(=O)(=O)c3c(F)cccc3F)n2)c(-c2ccnc(Nc3ccc(N4CCOCC4)nc3)n2)s1` [Example 44]: the IC50 was < 100 nM in test [1] (setting [3]) and < 100 nM in test [2] (Homo sapiens, SK-MEL-28, 72 h).
For the compound `CC(C)c1nc(-c2cncc(NS(=O)(=O)c3c(F)cccc3F)c2)c(-c2ccnc(Nc3ccc(N4CCOCC4)nc3)n2)s1` [Example 47], the IC50 in test [1] (setting [3]) was < 100 nM; in test [2] (Homo sapiens, SK-MEL-28, 72 h) it was < 100 nM.
Turning to `COc1ccc(S(=O)(=O)Nc2cccc(-c3nc(C(C)C)sc3-c3ccnc(Nc4ccc(N5CCOCC5)nc4)n3)c2)cn1` [Example 49], the half-inhibitory concentration (IC50) in test [1] (setting [3]) was < 100 nM; in test [2] (Homo sapiens, SK-MEL-28, 72 h), < 100 nM.
As to `CC(C)c1nc(-c2cccc(NS(=O)(=O)c3cccs3)c2)c(-c2ccnc(Nc3ccc(N4CCOCC4)nc3)n2)s1` [Example 51], the half-inhibitory concentration (IC50) in test [1] (setting [3]) is < 100 nM; in test [2] (Homo sapiens, SK-MEL-28, 72 h) it was < 100 nM.
Take `CC(C)c1nc(-c2cccc(NS(=O)(=O)c3cccnc3)c2)c(-c2ccnc(Nc3ccc(N4CCOCC4)nc3)n2)s1` [Example 52]: the IC50 in test [1] (setting [3]) was < 100 nM; in test [2] (Homo sapiens, SK-MEL-28, 72 h), < 100 nM.
In the case of `CC(C)c1nc(-c2cccc(NS(=O)(=O)c3ccco3)c2)c(-c2ccnc(Nc3ccc(N4CCOCC4)nc3)n2)s1` [Example 53], the IC50 in test [1] (setting [3]) is < 100 nM; in test [2] (Homo sapiens, SK-MEL-28, 72 h), < 100 nM.
In the case of `CC(=O)N1CCN(c2ccc(Nc3nccc(-c4oc(C(C)C)nc4-c4cccc(NS(=O)(=O)c5c(F)cccc5F)c4)n3)cn2)CC1` [Example 56], the IC50 was < 100 nM in test [1] (setting [3]) and < 100 nM in test [2] (Homo sapiens, SK-MEL-28, 72 h).
Turning to `CC(C)c1nc(-c2cccc(NS(=O)(=O)c3c(F)cccc3F)c2)c(-c2ccnc(Nc3ccc(N4CCOCC4)c(F)c3)n2)o1` [Example 57], the 50% inhibitory concentration (IC50) is < 100 nM in test [1] (setting [3]) and < 100 nM in test [2] (Homo sapiens, SK-MEL-28, 72 h).
For `Nc1nc(-c2cccc(NS(=O)(=O)c3c(F)cccc3F)c2)c(-c2ccnc(Nc3ccc(N4CCOCC4)nc3)n2)s1` [Example 62], the concentration for half-maximal inhibition (IC50) in test [1] (setting [3]) is < 100 nM; in test [2] (Homo sapiens, SK-MEL-28, 72 h), < 100 nM.
In the case of `CCNc1nc(-c2cccc(NS(=O)(=O)c3ccccc3)c2)c(-c2ccnc(Nc3ccc(OCCN4CCCC4)c(F)c3)n2)s1` [Example 65], the IC50 is < 100 nM in test [1] (Method A) and 100 to 1000 nM in test [2].
For the compound `CC(=O)N1CCN(c2ccc(Nc3nccc(-c4sc(C(C)C)nc4-c4cccc(NS(=O)(=O)c5cccc(C(F)(F)F)c5)c4)n3)cn2)CC1` [Example 70], the IC50 in test [1] (setting [3]) fell in the range of 100 to 1000 nM; in test [2] (Homo sapiens, SK-MEL-28, 72 h), 100 to 1000 nM.
In the case of `CC(C)c1nc(-c2ccc(F)c(NS(=O)(=O)c3c(F)cccc3F)c2)c(-c2ccnc(Nc3ccc(N4CCN5CCOC[C@H]5C4)nc3)n2)s1` [Example 97], the half-inhibitory concentration (IC50) in test [1] (setting [3]) is < 100 nM; in test [2] (Homo sapiens, SK-MEL-28, 72 h), < 100 nM.
As to `CCOc1ccc(Nc2nccc(-c3sc(C(C)C)nc3-c3ccc(F)c(NS(=O)(=O)c4c(F)cccc4F)c3)n2)cc1N1CCN(CCF)CC1` [Example 98], the IC50 in test [1] (setting [3]) was < 100 nM; in test [2] (Homo sapiens, SK-MEL-28, 72 h), 100 to 1000 nM.
For `CC(C)(C)c1nc(-c2ccc(F)c(NS(=O)(=O)c3c(F)cccc3F)c2)c(-c2ccnc(Nc3ccc(N4CCN(CCF)CC4)c(F)c3)n2)s1` [Example 99], the IC50 is < 100 nM in test [1] (setting [3]) and 100 to 1000 nM in test [2] (Homo sapiens, SK-MEL-28, 72 h).
For `CC(C)c1nc(-c2ccnc(NS(=O)(=O)c3c(F)cccc3F)c2)c(-c2ccnc(Nc3ccc(N4CCN(CCF)CC4)c(F)c3)n2)s1` [Example 100], in that order: < 100 nM and < 100 nM.
For `CC(C)c1nc(-c2cc(F)c(F)c(NS(=O)(=O)c3cccc(F)c3)c2)c(-c2ccnc(Nc3ccc(N4CCN(CCF)CC4)c(F)c3)n2)s1` [Example 101], the concentration for half-maximal inhibition (IC50) in test [1] (setting [3]) was < 100 nM; in test [2] (Homo sapiens, SK-MEL-28, 72 h) it was 100 to 1000 nM.
For `CC(C)c1nc(-c2ccc(F)c(NS(=O)(=O)c3c(F)cccc3F)c2)c(-c2ccnc(Nc3ccncc3)n2)s1` [Example 102], in that order: < 100 nM and 100 to 1000 nM.
Regarding `CN1CCC(c2nc(-c3ccc(F)c(NS(=O)(=O)c4c(F)cccc4F)c3)c(-c3ccnc(Nc4ccc(N5CCOCC5)nc4)n3)s2)CC1` [Example 106], the half-inhibitory concentration (IC50) was < 100 nM in test [1] (setting [3]) and 100 to 1000 nM in test [2] (Homo sapiens, SK-MEL-28, 72 h).
As to `CC(C)c1nc(-c2ccc(F)c(NS(=O)(=O)c3ccccc3C#N)c2)c(-c2ccnc(Nc3ccc(N4CCOCC4)nc3)n2)s1` [Example 107], the IC50 in test [1] (setting [3]) was < 100 nM; in test [2] (Homo sapiens, SK-MEL-28, 72 h) it was 100 to 1000 nM.
For `CCOc1ccc(Nc2nccc(-c3sc(N4CCCC4)nc3-c3cccc(NS(=O)(=O)c4c(F)cccc4F)c3)n2)cc1N1CCN(CCS(C)(=O)=O)CC1` [Example 109], in that order: < 100 nM and < 100 nM.
As for `CN(C)c1nc(-c2ccc(F)c(NS(=O)(=O)c3c(F)cccc3F)c2)c(-c2ccnc(Nc3ccc(N4CCN(S(C)(=O)=O)CC4)nc3)n2)s1` [Example 112], the 50% inhibitory concentration (IC50) in test [1] (setting [3]) was < 100 nM; in test [2] (Homo sapiens, SK-MEL-28, 72 h) it was 100 to 1000 nM.
On the same counts, the results for `CC(C)c1nc(-c2ccc(F)c(NS(=O)(=O)c3c(F)cccc3F)c2)c(-c2ccnc(Nc3cccc(CCS(N)(=O)=O)c3)n2)s1` [Example 113] are < 100 nM and 100 to 1000 nM.
On to `O=S(=O)(Nc1cc(-c2nc(N3CCCC3)oc2-c2ccnc(Nc3ccc(N4CCN(CCF)CC4)c(F)c3)n2)ccc1F)c1c(F)cccc1F` [Example 114], for which the IC50 in test [1] (setting [3]) was 100 to 1000 nM; in test [2] (Homo sapiens, SK-MEL-28, 72 h), 100 to 1000 nM.
Turning to `Cc1cc(Nc2nccc(-c3sc(C(C)C)nc3-c3ccc(F)c(NS(=O)(=O)c4c(F)cccc4F)c3)n2)ccn1` [Example 116], the IC50 in test [1] (setting [3]) is < 100 nM; in test [2] (Homo sapiens, SK-MEL-28, 72 h), < 100 nM.
Consider `CC(C)c1nc(-c2ccc(F)c(NS(=O)(=O)c3c(F)cccc3F)c2)c(-c2ccnc(Nc3ccnc(N4CCOCC4)c3)n2)s1` [Example 117], for which the half-maximal inhibitory concentration (IC50) was < 100 nM in test [1] (setting [3]) and < 100 nM in test [2] (Homo sapiens, SK-MEL-28, 72 h).
As for `CS(=O)(=O)CCN1CCN(c2ccc(Nc3nccc(-c4oc(N5CCCC5)nc4-c4ccc(F)c(NS(=O)(=O)c5c(F)cccc5F)c4)n3)cc2F)CC1` [Example 119], the IC50 was < 100 nM in test [1] (setting [3]) and 100 to 1000 nM in test [2] (Homo sapiens, SK-MEL-28, 72 h).
On the same counts, the results for `COc1cc(N2CCN(CCS(C)(=O)=O)CC2)c(C)cc1Nc1nccc(-c2sc(C(C)(C)C)nc2-c2cccc(NS(=O)(=O)c3c(F)cccc3F)c2)n1` [Example 120] are < 100 nM and 100 to 1000 nM.

Values taken from US20110319392A1, “Thiazole Sulfonamide And Oxazole Sulfonamide Kinase Inhibitors” (priority 2009, published 2011).
